One series has as its system HeLa cells. Description: Two-photon excited fluorescence spectra of labeled HeLa cells. Format: cell-based, human. The protocol:
Accordingly, it can be seen that HEPES/EtOH (1/1) has polarity similar to that of the cellular environment.
This confirms again that HEPES/EtOH (1/1) is a good model of the cellular environment and HS^− can be detected by TPM using the compound of [Chemical Formula 2-6].
HeLa human cervical carcinoma cells were acquired from the ATCC (Manassas, Va., USA). The cells were cultured in DMEM (WelGene, Inc., Seoul, Korea) supplemented with heat-inactivated 10% FBS (WelGene), penicillin (100 units/mL) and streptomycin ([…]).
For labeling, the growth medium was removed and replaced with DMEM without FBS. The cells were incubated with the compound of [Chemical Formula 2-6] ([…]) for 30 minutes, washed 3 times with FBS-free DMEM and imaged.
The TPM images were obtained with the DM IRE2 microscope (Leica) by exciting the probes with a mode-locked titanium-sapphire laser source (Coherent Chameleon, 90 MHz, 200 fs) set at a wavelength of 750 nm and an output power of 1380 mW, which corresponded to an average power of approximately 2 mW in the focal plane.

The nature of series [1]: Measurement of two-photon cross section (fs fluorescence technique, rhodamine 6G reference). The series is classed as physicochemical. The conditions noted are these: for Φδmax, two-photon action cross section: uncertainty ±15%. Here is the method: Two-photon cross section (δ) was determined using a femtosecond (fs) fluorescence measurement technique.
The compound of [Chemical Formula 2-5] and the compound of [Chemical Formula 2-6] were dissolved in 20 mM HEPES buffer (pH 7.2) and 3.0×10^−6 M HEPES/EtOH (1/1) and then two-photon induced fluorescence intensity was measured at 740-940 nm using rhodamine 6G as a reference, whose two-photon property has been well characterized. The two-photon fluorescence intensities of the reference and the compound of [Chemical Formula 2-6] and the compound of [Chemical Formula 2-5] were determined.
The two-photon cross section was calculated from δ=δr(Ssφrφrcr)/(Srφsφscs). In the equation, the subscripts s and r stand for the sample, i.e., the compound of [Chemical Formula 2-6] and the compound of […], respectively. S denotes the intensity of the signal collected using a CCD detector, φ is the fluorescence quantum yield (measured using coumarin 307 and rhodamine B according to the literature), […] fluorescence collection efficiency, and c is the number density of molecules in solution. δr is the two-photon cross section of the reference molecule.

Series [2] in a line: Selectivity for sulfide: ratiometric response (F2/F1) in the presence of various analytes. Here is the method: The ratio of fluorescence intensities (F2/F1) measured at a short wavelength (F1) and a long wavelength (F2) at 0, 60 and 120 min is shown. All the data were obtained at 37° C. in HEPES buffer. Excitation wavelengths for one-photon and two-photon processes were 370 nm (short wavelength) and 750 nm (long wavelength), respectively.
To test whether the compound of [Chemical Formula 2-6] can selectively detect HS^− over other biologically relevant species, the ratiometric response of the compound of [Chemical Formula 2-6] was determined in the presence of various analytes.

Series [3] is described as follows: Kinetic studies in solution: reaction of the probe with sulfide. An excerpt: The reaction between the compound of [Chemical Formula 2-6] […] For example, the compound of [Chemical Formula 2-6] was synthesized from the reaction of the compound of [Chemical Formula 2-5] and HS^−. Also, precipitation of sulfur or sulfide was reported in the reaction between phenyl azide and Na2S.
This followed pseudo first-order kinetics with kobs=2.89×10^−4 s^−1 (FIG. 1b).
The k2 value calculated from the slope of the plot was 5.13 M^−1s^−1 (measured in HEPES buffer).
Reactions of the compound of [Chemical Formula 2-6] (5 μM) with Na2S (100-500 μM) in HEPES buffer or HEPES/EtOH (1/1, pH 7.2) were followed by monitoring of the increase in the fluorescence of the compound of [Chemical Formula 2-5] at 525-650 nm using a luminescence spectrometer.
The kinetic studies in a TP mode were conducted by the same procedure described above except that the TPEF was collected upon excitation at 750 nm.
In all cases, the plots of −ln(F^∞2−F2) vs. t were linear with good correlations. The kobs values were obtained from the slopes of the plots and the K2 values were obtained from the slopes of the plots of kobs vs. [HS^−]. [HS^−] was calculated by assuming that all of the Na2S was converted to HS^− and H2S, that is, [Na2S]=[H2S]+[HS^−], and using the relationship [H2S]/[HS^−]=[H^+]/Ka=0.794 in HEPES/EtOH (1/1, pH=7.2).

With `COCCOCCC1(CCOCCOC)c2cc(NC(=O)OCc3ccc(N=[N+]=[N-])cc3)ccc2-c2ccc(-c3nc4ccccc4s3)cc21` [Chemical Formula 2-6], the “λ^flmax, maximum emission in cells” value with HeLa cells was found to be 450 nm. For the same molecule, the “λ^(2)max, two-photon maximum” value in series [1] (HEPES) and in series [1] (HEPES/EtOH (1/1)) was 740 nm in each case. In addition, the “Φδmax, two-photon action cross section” value in series [1] (HEPES buffer, 2-6 at 740 nm, 2-5 at 750 nm) amounted to 0.67 GM; in series [1] (HEPES/EtOH (1/1), GM = 10^−50 cm^4s/photon), 12 GM. Also, the “increase of action cross section (φδ) in HEPES/EtOH (1/1) versus HEPES buffer” value in series [1] (HEPES/EtOH (1/1) vs HEPES buffer) came to 12 fold. Further, the “reactivity toward other biologically relevant species” value in series [2] (10 mM GSH, 1 mM Cys, 1 mM 2-ME, RSS, RNS, ROS, Ala, Glu, metal ions) is “no reactivity”. Moreover, the “increase of relative fluorescence intensity ratio (F2/F1)” value in series [2] (100 mM Na2S (55.7 mM HS^−), HEPES buffer) is listed as 110 fold. Moreover, the F2/F1 after deazidation in series [2] (HEPES buffer) is listed as 110. The “reactivity toward commercially available GSH” value in series [2] (commercially available GSH) is given as “small reactivity”. Besides, in series [2] (purified GSH), the “reactivity toward purified GSH” value is on record as “no reactivity”. In addition, the “k2, second-order rate constant of reaction with HS^−” value in series [3] (HEPES buffer, slope of kobs vs. [HS^−]) is 5.13 M⁻¹ s⁻¹; in series [3] (HEPES/EtOH (1/1, pH=7.2), calculated using pKa (H2S)=7.10), 5.17 M⁻¹ s⁻¹. In addition, the “influence of p-dinitrobenzene (electron acceptor) on kobs” value in series [3] (addition of p-dinitrobenzene) is given as “not influenced”. Moreover, the “kobs, pseudo first-order rate constant” value in series [3] (probe 5 μM + 100 μM Na2S, HEPES buffer, 37° C.) worked out at 0.000289 s⁻¹.

The values above are taken from patent US9220794B2, “Two-photon fluorescent probes for imaging of total sulfide in live cell and tissue, and quantitative estimation of total sulfide concentration using the same” (Korea University Research and Business Foundation, priority 2013, dated 2015).
